Measurements from US20190381086A1, “INHIBITION OF NEDDYLATION USING GLYCYL-tRNA SYNTHETASE INHIBITORS” (The Scripps Research Institute, priority 2015, published 2019).

How the values were obtained:
SNB-75 = type: cell-based; details: SNB-75, CNS Cancer
HS 578T = type: cell-based; details: Breast Cancer
HOP-92 [1] = type: cell-based; details: HOP-92, Non-Small Cell Lung Cancer
COLO 205 [2] = type: cell-based; details: COLO 205, Colon Cancer
SR = experiment: NCI 60 Cell One-Dose Screen; type: cell-based, human; details: Leukemia, single dose 10^-5 M
MDA-MB-231/ATCC = experiment: NCI 60 Cell One-Dose Screen; type: cell-based, human; details: Breast Cancer, single dose 10^-5 M
OVCAR-5 = type: cell-based; details: OVCAR-5, Ovarian Cancer
SF-539 = type: cell-based; details: SF-539, CNS Cancer
SK-MEL-28 = experiment: NCI 60 Cell One-Dose Screen; type: cell-based, human; details: SK-MEL-28, Melanoma; single dose 10^-5 M
S. aureus GlyRS = S. aureus GlyRS (UniProt Q2FY08); details: read-out: IC50 (the inhibitor concentration at which GlyRS activity is reduced by half); cited from earlier work
M14 = type: cell-based; details: M14, Melanoma
UO-31 = type: cell-based; details: UO-31, Renal Cancer
COLO 205 [3] = experiment: NCI 60 Cell One-Dose Screen; type: cell-based, human; details: COLO 205, Colon Cancer; single dose 10^-5 M
K-562 = type: cell-based; details: K-562, Leukemia
NCI-H226 = type: cell-based; details: NCI-H226, Non-Small Cell Lung Cancer
MOLT-4 [4] = experiment: NCI 60 Cell One-Dose Screen; type: cell-based, human; details: MOLT-4, Leukemia; single dose 10^-5 M
MOLT-4 [5] = type: cell-based; details: MOLT-4, Leukemia
PC-3 = experiment: NCI 60 Cell One-Dose Screen; type: cell-based, human; details: PC-3, Prostate Cancer; single dose 10^-5 M
IGROV1 = type: cell-based; details: IGROV1, Ovarian Cancer
SK-MEL-5 = type: cell-based; details: SK-MEL-5, Melanoma
EKVX = type: cell-based; details: Non-Small Cell Lung Cancer
HCC-2998 [6] = type: cell-based; details: HCC-2998, Colon Cancer
TK-10 = type: cell-based
NCI/ADR-RES = experiment: NCI 60 Cell One-Dose Screen; type: cell-based, human; details: Ovarian Cancer, single dose 10^-5 M
HCC-2998 [7] = experiment: NCI 60 Cell One-Dose Screen; type: cell-based, human; details: HCC-2998, Colon Cancer; single dose 10^-5 M
ACHN = type: cell-based; details: Renal Cancer
SNB-19 = type: cell-based; details: SNB-19, CNS Cancer
HL-60(TB) = type: cell-based
SF-268 = experiment: NCI 60 Cell One-Dose Screen; type: cell-based, human; details: SF-268, CNS Cancer; single dose 10^-5 M
OVCAR-4 = type: cell-based; details: OVCAR-4, Ovarian Cancer
HOP-92 [8] = experiment: NCI 60 Cell One-Dose Screen; type: cell-based, human; details: HOP-92, Non-Small Cell Lung Cancer; single dose 10^-5 M
[9] = Homo sapiens, read-out: LC50 (the source's name)

Q: What does the source list for `NCC(=O)NS(=O)(=O)OC[C@H]1O[C@@H](n2cnc3c(N)ncnc32)[C@H](O)[C@@H]1O` [GlySA, glycylsulfamoyladenosine]?
A: GI50 (SNB-75; Homo sapiens): 1.15 µM; CC50 (SNB-75; [9]): 9.55 µM; LC50/GI50 (SNB-75): 8.3; LC50/GI50 (HS 578T): >34.7; GI50 (HS 578T; Homo sapiens): 2.88 µM; CC50 (HS 578T; [9]): > 100 µM; LC50/GI50 (HOP-92 [1]): 9.3; GI50 (HOP-92 [1]; Homo sapiens): 2.95 µM; CC50 (HOP-92 [1]; [9]): 27.5 µM; LC50/GI50 (COLO 205 [2]): 28.2; GI50 (COLO 205 [2]; Homo sapiens): 2.29 µM; CC50 (COLO 205 [2]; [9]): 64.6 µM; Growth inhibition count (%) (SR): 9.926%; Growth inhibition count (%) (MDA-MB-231/ATCC): 2.608%; GI50 (OVCAR-5; Homo sapiens): 0.741 µM; CC50 (OVCAR-5; [9]): > 100 µM; LC50/GI50 (OVCAR-5): >134.9; GI50 (SF-539; Homo sapiens): 1.45 µM; CC50 (SF-539; [9]): 8.91 µM; LC50/GI50 (SF-539): 6.2; Growth inhibition count (%) (SK-MEL-28): 8.357%; IC50 (S. aureus GlyRS): ~2400 µM; GI50 (M14; Homo sapiens): 1.82 µM; CC50 (M14; [9]): 7.24 µM; LC50/GI50 (M14): 4.0; GI50 (UO-31; Homo sapiens): 1.7 µM; CC50 (UO-31; [9]): 6.17 µM; LC50/GI50 (UO-31): 3.6; Growth inhibition count (%) (COLO 205 [3]): 48.51%; GI50 (K-562; Homo sapiens, K562): 3.71 µM; LC50/GI50 (K-562): >26.9; GI50 (NCI-H226; Homo sapiens): 2 µM; CC50 (NCI-H226; [9]): 7.08 µM; LC50/GI50 (NCI-H226): 3.5; Growth inhibition count (%) (MOLT-4 [4]): 1.146%; GI50 (MOLT-4 [5]; Homo sapiens): 2.63 µM; CC50 (MOLT-4 [5]; [9]): > 100 µM; LC50/GI50 (MOLT-4 [5]): >38.0; Growth inhibition count (%) (PC-3): 9.662%; GI50 (IGROV1; Homo sapiens, IGROV-1): 3.02 µM; CC50 (IGROV1; Homo sapiens, IGROV-1, read-out: LC50 (the source's name)): 47.9 µM; LC50/GI50 (IGROV1): 15.8; GI50 (SK-MEL-5; Homo sapiens): 1.86 µM; LC50/GI50 (SK-MEL-5): 3.2; GI50 (EKVX; Homo sapiens): 2.57 µM; LC50/GI50 (EKVX): >38.9; LC50/GI50 (HCC-2998 [6]): 4.6; GI50 (HCC-2998 [6]; Homo sapiens): 2.04 µM; CC50 (HCC-2998 [6]; [9]): 9.33 µM; GI50 (TK-10; Homo sapiens, TK-10): 2.75 µM; CC50 (TK-10; Homo sapiens, TK-10, Renal Cancer, read-out: LC50 (the source's name)): 23.4 µM; LC50/GI50 (TK-10; TK-10, Renal Cancer): 8.5; Growth inhibition count (%) (NCI/ADR-RES): 2.073%; Growth inhibition count (%) (HCC-2998 [7]): 41.35%; GI50 (ACHN; Homo sapiens): 2.88 µM; CC50 (ACHN; [9]): 33.9 µM; LC50/GI50 (ACHN): 11.7; GI50 (SNB-19; Homo sapiens): 0.38 µM; CC50 (SNB-19; [9]): 6.92 µM; LC50/GI50 (SNB-19): 18.2; LC50/GI50 (HL-60(TB); HL-60(TB), Leukemia): >36.3; GI50 (HL-60(TB); Homo sapiens, HL-60): 2.75 µM; Growth inhibition count (%) (SF-268): 3.776%; GI50 (OVCAR-4; Homo sapiens): 0.389 µM; CC50 (OVCAR-4; [9]): 24 µM; LC50/GI50 (OVCAR-4): 61.7; Growth inhibition count (%) (HOP-92 [8]): 17.26%
